What was measured:
Type in all cases: cell-based
[1] = test system: biofilm-producing Staphylococcus epidermidis strains; experiment: Biofilm eradication (MBEC Assay Kit)
[2] = test system: Staphylococcus epidermidis ATCC 12228; experiment: MIC, broth microdilution, MSSE reference strain; conditions: ATCC12228, Staphylococcus epidermidis ATCC 12228, read-out: MIC MSSE
Text: These strains included susceptible, multidrug-resistant, and biofilm-producing strains of S. epidermidis and S. aureus (MSSE, MDR/BPSE, and MDR/BPSA, respectively). The cornerstone antibiotic linezolid served as a positive control (Table 1). The impact of structural modifications at the aryloxy fragment and the aromatic moiety bound to the propyl linker on the inhibitory activity was initially investigated. […] Further optimization focused on evaluating the impact of the type of substituent and its position on the arylsulfonamide fragment’s activity.
2 Biological assay protocols
Microbiological tests were carried out under aseptic conditions in a laminar chamber of the 2nd […]
(BioTectum 1.2, Alchem Poland). The assessment of antimicrobial activity was carried out for final compounds in the form of free bases, soluble in DMSO (Merck, Germany), at the initial […]
concentration of 1 mg/mL. […]
were provided by Cayman Chemical, USA.
The activity of all newly synthesized compounds was tested in vitro on a panel of selected reference strains from the American Type Culture Collection (ATCC) of Gram-positive […]
2.2 Effect of evaluated compounds on planktonic cells
The susceptibility of three reference bacterial strains (Staphylococcus epidermidis ATCC […]
Table S1) and 81 clinical MDR S. epidermidis (Table S2) to the tested compounds was assessed by determining the MIC value (Minimal Inhibitory Concentration) by microdilution in a liquid medium in 96-well flat-bottom cell culture plates (Nest Biotechnology Scientific, USA). The antibacterial properties of the compo unds were tested in the concentration range from 50 µg/mL to 0.1 µg/mL by making a series of double dilutions of the compound in liquid Mueller -Hinton II Broth Cation Adjusted (MHB II, BBL TM, USA) according to the European Committee on […]
Antimicrobial Susceptibility Testing guidelines (EUCAST).2,3 The determinations were performed twice. The MIC50 and MIC90 values were determined for each of the tested

[3] = test system: biofilm-producing Staphylococcus epidermidis strains; experiment: Inhibition of biofilm formation (MBIC, resazurin)
Protocol: After 24 hours incubation each well of
concentration of 4 mg/mL was added. […]

[4] = S. epidermidis ATCC 35984 (Table S4)

CC(=O)NC[C@H]1CN(c2ccc(N3CCOCC3)c(F)c2)C(=O)O1 [linezolid, reference compound]
31.25 µg/mL: MBEC ([1]; clinical strain 1 (Table S4)) | MBEC ([1]; clinical strain 6 (Table S4)) | MBEC ([1]; clinical strain 17 (Table S4)) | MBEC ([1]; clinical strain 19 (Table S4))
25 µg/mL: MBEC ([1]; clinical strain 44 (Table S4)) | MBEC ([1]; clinical strain 47 (Table S4)) | MBEC ([1]; clinical strain 49 (Table S4)) | MBEC ([1]; clinical strain 66 (Table S4)) | MBEC ([1]; clinical strain 74 (Table S4)) | MBIC50 ([3]; Table S4 strains) | MBIC ([3]; clinical strain 17 (Table S4)) | MBIC ([3]; clinical strain 19 (Table S4)) | MBIC ([3]; clinical strain 28 (Table S4)) | MBIC ([3]; clinical strain 29 (Table S4)) | MBIC ([3]; clinical strain 36 (Table S4)) | MBIC ([3]; clinical strain 40 (Table S4)) | MBIC ([3]; clinical strain 43 (Table S4)) | MBIC ([3]; clinical strain 44 (Table S4)) | MBIC ([3]; clinical strain 47 (Table S4)) | MBIC ([3]; clinical strain 49 (Table S4)) | MBIC ([3]; clinical strain 66 (Table S4)) | MBIC ([3]; clinical strain 74 (Table S4)) | MBIC ([3]; clinical strain 75 (Table S4))
15.6 µg/mL: MBEC [1, 4] | MBEC ([1]; clinical strain 8 (Table S4)) | MBEC ([1]; clinical strain 23 (Table S4)) | MBEC ([1]; clinical strain 25 (Table S4)) | MBEC ([1]; clinical strain 73 (Table S4)) | MBEC ([1]; clinical strain 78 (Table S4)) | MBEC ([1]; clinical strain 79 (Table S4)) | MBIC [3, 4] | MBIC ([3]; clinical strain 1 (Table S4)) | MBIC ([3]; clinical strain 5 (Table S4)) | MBIC ([3]; clinical strain 6 (Table S4)) | MBIC ([3]; clinical strain 16 (Table S4)) | MBIC ([3]; clinical strain 73 (Table S4)) | MBIC ([3]; clinical strain 78 (Table S4)) | MBIC ([3]; clinical strain 79 (Table S4))
50 µg/mL: MBEC50 ([1]; Table S4 strains) | MBEC90 ([1]; Table S4 strains) | MBEC ([1]; clinical strain 2 (Table S4)) | MBEC ([1]; clinical strain 3 (Table S4)) | MBEC ([1]; clinical strain 4 (Table S4)) | MBEC ([1]; clinical strain 5 (Table S4)) | MBEC ([1]; clinical strain 7 (Table S4)) | MBEC ([1]; clinical strain 9 (Table S4)) | MBEC ([1]; clinical strain 11 (Table S4)) | MBEC ([1]; clinical strain 12 (Table S4)) | MBEC ([1]; clinical strain 15 (Table S4)) | MBEC ([1]; clinical strain 16 (Table S4)) | MBEC ([1]; clinical strain 21 (Table S4)) | MBEC ([1]; clinical strain 22 (Table S4)) | MBEC ([1]; clinical strain 26 (Table S4)) | MBEC ([1]; clinical strain 27 (Table S4)) | MBEC ([1]; clinical strain 28 (Table S4)) | MBEC ([1]; clinical strain 29 (Table S4)) | MBEC ([1]; clinical strain 33 (Table S4)) | MBEC ([1]; clinical strain 35 (Table S4)) | MBEC ([1]; clinical strain 36 (Table S4)) | MBEC ([1]; clinical strain 37 (Table S4)) | MBEC ([1]; clinical strain 40 (Table S4)) | MBEC ([1]; clinical strain 41 (Table S4)) | MBEC ([1]; clinical strain 42 (Table S4)) | MBEC ([1]; clinical strain 43 (Table S4)) | MBEC ([1]; clinical strain 45 (Table S4)) | MBEC ([1]; clinical strain 46 (Table S4)) | MBEC ([1]; clinical strain 51 (Table S4)) | MBEC ([1]; clinical strain 55 (Table S4)) | MBEC ([1]; clinical strain 58 (Table S4)) | MBEC ([1]; clinical strain 59 (Table S4)) | MBEC ([1]; clinical strain 65 (Table S4)) | MBEC ([1]; clinical strain 67 (Table S4)) | MBEC ([1]; clinical strain 70 (Table S4)) | MBEC ([1]; clinical strain 75 (Table S4)) | MBIC90 ([3]; Table S4 strains) | MBIC ([3]; clinical strain 2 (Table S4)) | MBIC ([3]; clinical strain 3 (Table S4)) | MBIC ([3]; clinical strain 4 (Table S4)) | MBIC ([3]; clinical strain 7 (Table S4)) | MBIC ([3]; clinical strain 9 (Table S4)) | MBIC ([3]; clinical strain 11 (Table S4)) | MBIC ([3]; clinical strain 12 (Table S4)) | MBIC ([3]; clinical strain 15 (Table S4)) | MBIC ([3]; clinical strain 21 (Table S4)) | MBIC ([3]; clinical strain 22 (Table S4)) | MBIC ([3]; clinical strain 26 (Table S4)) | MBIC ([3]; clinical strain 27 (Table S4)) | MBIC ([3]; clinical strain 33 (Table S4)) | MBIC ([3]; clinical strain 35 (Table S4)) | MBIC ([3]; clinical strain 37 (Table S4)) | MBIC ([3]; clinical strain 41 (Table S4)) | MBIC ([3]; clinical strain 42 (Table S4)) | MBIC ([3]; clinical strain 45 (Table S4)) | MBIC ([3]; clinical strain 46 (Table S4)) | MBIC ([3]; clinical strain 51 (Table S4)) | MBIC ([3]; clinical strain 55 (Table S4)) | MBIC ([3]; clinical strain 58 (Table S4)) | MBIC ([3]; clinical strain 59 (Table S4)) | MBIC ([3]; clinical strain 65 (Table S4)) | MBIC ([3]; clinical strain 67 (Table S4)) | MBIC ([3]; clinical strain 70 (Table S4))
0.8 µg/mL: MIC [2]
12.5 µg/mL: MBIC ([3]; clinical strain 8 (Table S4)) | MBIC ([3]; clinical strain 23 (Table S4)) | MBIC ([3]; clinical strain 25 (Table S4, Figure 2))
7.8 µg/mL: MBEC ([1]; clinical strain 13 (Table S4)) | MBEC ([1]; clinical strain 30 (Table S4)) | MBEC ([1]; clinical strain 39 (Table S4))
6.25 µg/mL: MBIC ([3]; clinical strain 13 (Table S4)) | MBIC ([3]; clinical strain 30 (Table S4)) | MBIC ([3]; clinical strain 39 (Table S4))

Source: publication PMC10945555, “Improving Activity of New Arylurea Agents against Multidrug-Resistant and Biofilm-Producing Staphylococcus epidermidis” (ACS Medicinal Chemistry Letters, 2024)
